The source of these data is patent US20110223131A1, “ANTIVIRAL COMPOUNDS” (Gilead Sciences, Inc., priority 2010, published 2011).

Data set [1] can be described thus: Aqueous solubility in buffers, HPLC-UV. In kind it is physicochemical. The settings on record: aqueous buffer, thermodynamic from solid, 24 to 48 hours. How it is done:
Excess solid material was added to aqueous buffers at pH 2 and pH 7 in glass vials to form suspensions. The suspension was stirred on a stirrer plate with a magnetic stirrer bar at room temperature for periods of 24 to 48 hours. The suspension was filtered through a 0.22 micron PVDF syringe filters. The clear filtrate was diluted in acetonitrile and analyzed by HPLC-UV against an external standard for the compound concentration.

Data set [2] can be described thus: Oral bioavailability from crystalline suspension in dog (plasma PK, LC/MS/MS). The settings on record: for bioavailability: read-out: F (oral bioavailability). In kind it is in vivo, beagle dogs. The procedure: Oral Bioavailability-Determination of Oral Bioavailability of Integrase Inhibitors from Crystalline Suspension in Dog The in-life phase of these studies was carried out at SRI, Menlo Park, Calif. Both Compound (Ia) and Comparator Compound were formulated in 0.5% HPMC […], 0.2% Tween 20, 0.9% benzyl alcohol, and 98.4% water. Both were at 2.00 mg/mL for oral dosing. Each dosing group consisted of 3 male, beagle dogs. At dosing, the animals weighed an average of 10.9 kgs for Compound (Ia) and 10.5 kgs for Comparator Compound. The animals were fasted overnight prior to dose administration and up to 4 hr after dosing. The dogs were pre-treated with pentagastrin at 30 minutes prior to dosing by IM injection. The Compound (Ia) suspension was administered by oral gavage at 1.5 mL/kg to deliver a total dose of 3 mg/kg, while the Comparator Compound suspension was administered by oral gavage at 2 mL/kg for a dose of 4 mg/kg. Serial venous blood samples (approximately 0.8-1.0 mL each) were taken at specified time points (range t=0 to t=24 hr) after dosing from each animal. The blood samples were collected into VacutainerTM tubes containing EDTA-K3 as the anti-coagulant and were immediately placed on wet ice pending centrifugation for plasma. Dosing solutions were analyzed using un-used portions of the dosing solutions, and aliquots of approximately 1 mL of each dosing solution were saved. The concentration of compound in the dosing solution was measured with an HPLC-UV method. Comparator Compound (nominal dose of 4 mg/kg) was dosed at 9387 nmoles/kg, while Compound (Ia) (nominal dose of 3 mg/kg) was dosed at 6563-6566 nmoles/kg. An LC/MS/MS method was used to measure the concentration of test compounds in plasma. Non-compartmental pharmacokinetic analysis was performed on the plasma concentration-time data. The bioanalytical method consisted of treating 100 μL of each plasma sample with 200 μL of acetonitrile (ACN) and 200 μL acetonitrile (ACN) containing internal standard. After protein precipitation and centrifugation, 100 μL of the supernatant was transferred to a clean 96-well plate and mixed with 100 μL of water. An aliquot of 10 μL of the above solution was injected onto an API-4000 triple quadrupole LC/MS/MS system. A Hypersil Gold (#25005-053030, Thermo Electron Corporation) column was used. Mobile phase A contained water with 0.1% formic acid and 1% IPA. Mobile phase B contained acetonitrile with 0.1% formic acid and 1% IPA.

Data set [3] has as its system HIV-IIIb. The settings on record: MT-2 cells; as reported in WO 2010/011959; cited from earlier work.
The test system of data set [4] is HIV-IIIb. Put plainly: Antiviral assay in MT-2 / MT-4 cells infected with HIV-IIIb (CellTiter-Glo readout). In kind it is cell-based. The settings on record: Human immunodeficiency virus 1, MT4, 120 h, 5 days, cell line (MT-2 or MT-4) not printed in Table 1. How it is done:
For the antiviral assay utilizing MT-2 cells, 50 μL of 2× test concentration of 5-fold serially diluted compound in culture medium with 10% FBS was added to each well of a 96-well plate (9 concentrations) in triplicate. MT-2 cells were infected with HIV-IIIb at a multiplicity of infection (m.o.i) of 0.01 for 3 hours. Fifty microliters of infected cell suspension in culture medium with 10% FBS (˜1.5×10^4 cells) was then added to each well containing 50 μL of diluted compound. The plates were then incubated at 37° C. for 5 days. For the antiviral assay utilizing MT-4 cells, 20 μL of 2× test concentration of 5-fold serially diluted compound in culture medium with 10% FBS was added to each well of a 384-well plate (7 concentrations) in triplicate. MT-4 cells were next mixed with HIV-IIIb at an m.o.i. of 0.1 and 20 μL of virus/cell mixture (˜2000 cells) was immediately added to each well containing 20 μL of diluted compound. The plates were then incubated at 37° C. for 5 days. After 5 days of incubation, 100 μL of CellTiter-Glo™ Reagent (catalog #G7571, Promega Biosciences, Inc., Madison, Wis.) was added to each well containing MT-2 cells and 40 μl to each well containing MT-4 cells. Cell lysis was carried out by incubating at room temperature for 10 min and then chemiluminescence was read.
(In ATP-based viability assays light output follows the ATP content of the culture.)

Data set [5] is described as follows: Cytotoxicity (CC50) in MT-2 cells. The settings on record: human. In kind it is cell-based.
A short description of data set [6]: Cytotoxicity (CC50) in MT-4 cells. In kind it is cell-based. The settings on record: human.
Setting [7] is: PO 4 mg/kg suspension, dog plasma, individual dogs, 4 mg/kg.
The mark [8] stands for this setting: male, beagle, dog, plasma, po, 4 mg/kg, PO 4 mg/kg suspension, dog plasma, individual dogs.
Setting [9] is: PO 3 mg/kg suspension, dog plasma, individual dogs, 3 mg/kg.
Setting [10] is: male, beagle, dog, plasma, po, 3 mg/kg, PO 3 mg/kg suspension, dog plasma, individual dogs.
Where [11] appears, read: male, beagle, dog, plasma, po, 3 mg/kg, PO 3 mg/kg suspension, dog plasma, mean n = 3.

≈ marks a conversion by molar mass, not a printed value. Where “and” joins values, the source holds several entries; their conditions need not be identical. Identical values can stand only once. Like-named read-outs stand apart in the source and are kept apart here.

Regarding `CNC(=O)c1c(O)c2ncc(Cc3ccc(F)cc3)c3c2n(c1=O)C[C@H](C(=O)NC)O3` [Comparator Compound, reference compound], the solubility (commonly how much of the substance goes into solution per volume) in data set [1] (pH 2.2, room temperature) was 1 µg/mL (≈ 2.35 µM); in data set [1] (pH 7.3, room temperature) it was 1 µg/mL (≈ 2.35 µM). The AUClast in data set [2] (setting [7]) is 0.385 µM·h and 0.0898 µM·h and 0.0552 µM·h. The Cmax (usually the peak of the concentration-time curve) in data set [2] (setting [7]) was 58.5 nM and 16.3 nM and 11.3 nM; in data set [2] (male, beagle, dog, plasma, po, 4 mg/kg, PO 4 mg/kg suspension, dog plasma, mean n = 3) it was 28.7 ± 25.9 nM. For the same compound, the time to peak (Tmax) (commonly the time at which the peak concentration occurs) in data set [2] (setting [7]) was found to be 2.00 h; in data set [2] (male, beagle, dog, plasma, po, 4 mg/kg, PO 4 mg/kg suspension, dog plasma, individual dogs, read-out: Tmax), 4 h; in data set [2] (male, beagle, dog, plasma, po, 4 mg/kg, PO 4 mg/kg suspension, dog plasma, mean n = 3, read-out: Tmax), 2.67 h. Also, in data set [2] (PO 4 mg/kg suspension, dog, individual dogs, 4 mg/kg), the “F (oral bioavailability)” value was 0.5% and 0.1% (2×). The CL is 0.13 L/h/kg and 0.14 L/h/kg and 0.19 L/h/kg in data set [2] (listed in table of PO 4 mg/kg suspension, dog plasma, individual dogs, 4 mg/kg); 0.15 L/h/kg in data set [2] (listed in table of PO 4 mg/kg suspension, dog plasma, mean n = 3). Further, the total exposure AUC(0-inf) – broadly, total exposure, with the tail of the curve extrapolated – is 0.427 µM·h in data set [2] (male, beagle, dog, plasma, po, 4 mg/kg, PO 4 mg/kg suspension, dog plasma, Mean column (only one dog calculable)) and 0.427 µM·h in data set [2] (setting [8]). Also, the half-life (usually how long it takes for the measured level to halve) in data set [2] (setting [8]) is 2.97 h. For the same compound, the AUC(0-t) in data set [2] (male, beagle, dog, plasma, po, 4 mg/kg, PO 4 mg/kg suspension, dog plasma, mean n = 3, read-out: AUClast (AUC0-t)) came out at 0.177 ± 0.181 µM·h. The bioavailability (in general, dose-corrected exposure relative to a reference, in per cent) in data set [2] (male, beagle, dog, plasma, po, 4 mg/kg, PO 4 mg/kg suspension, pentagastrin pretreated dogs, mean n = 3) stood at 0.2%. Besides, the EC50 – broadly, the concentration needed to bring the measured effect to its halfway point – in data set [3] was 6.8 nM.
In data set [4], `CNC(=O)c1c(O)c2ncc(Cc3ccc(F)cc3)c3c2n(c1=O)C[C@](C)(c1nnc(C)o1)O3` [Compound (Ia)] gave a half-maximal effective concentration (EC50) of 3.4 nM. In addition, the CC50 – broadly, the concentration giving 50% cytotoxicity – at 5 days came out at 5300 nM in data set [5] and 42000 nM in data set [6]. The solubility is 29.4 µg/mL (≈ 63.2 µM) in data set [1] (pH 2.2, room temperature) and 31.6 µg/mL (≈ 67.9 µM) in data set [1] (pH 7.3, room temperature). The AUCinf in data set [2] (setting [9]) was 14.413 µM·h and 21.913 µM·h. Moreover, in data set [2] (setting [9]), the AUClast was 14.199 µM·h and 21.762 µM·h. The Cmax in data set [2] (setting [9]) was 2500 nM and 4240 nM; in data set [2] (setting [10]) it was 3160 nM; in data set [2] (setting [11]) it was 3300 ± 878 nM. Further, the Tmax in data set [2] (setting [9]) was 2.00 h; in data set [2] (male, beagle, dog, plasma, po, 3 mg/kg, PO 3 mg/kg suspension, dog plasma, individual dogs, read-out: Tmax) it was 1 h; in data set [2] (male, beagle, dog, plasma, po, 3 mg/kg, PO 3 mg/kg suspension, dog plasma, mean n = 3, read-out: Tmax) it was roughly 1.33 h. Besides, the t1/2 in data set [2] (setting [9]) is 4.88 h and 3.64 h. Besides, the “F (oral bioavailability)” value in data set [2] (PO 3 mg/kg suspension, dog, individual dogs, 3 mg/kg) is 35.0% and 53.6%; in data set [2] (PO 3 mg/kg suspension, pentagastrin pretreated dogs, mean n = 3), 45.2%. In addition, the CL in data set [2] (listed in table of PO 3 mg/kg suspension, dog plasma, individual dogs, 3 mg/kg) was 0.17 L/hr/kg (2×) and 0.15 L/hr/kg; in data set [2] (listed in table of PO 3 mg/kg suspension, dog plasma, mean n = 3) it was 0.16 L/h/kg. For the same compound, the total exposure AUC(0-inf) in data set [2] (setting [10]) was determined as 19.3 µM·h; in data set [2] (setting [11]), 18.6 µM·h. Moreover, the half-life is 4.16 h in data set [2] (setting [10]) and 4.22 h in data set [2] (setting [11]). Further, the AUC(0-t) in data set [2] (male, beagle, dog, plasma, po, 3 mg/kg, PO 3 mg/kg suspension, dog plasma, individual dogs, read-out: AUClast) amounted to 19.1 µM·h; in data set [2] (male, beagle, dog, plasma, po, 3 mg/kg, PO 3 mg/kg suspension, dog plasma, mean n = 3, read-out: AUClast) it was 18.3 µM·h. Moreover, the bioavailability was 47% in data set [2] (male, beagle, dog, plasma, po, 3 mg/kg, PO 3 mg/kg suspension, dog, individual dogs) and 45% in data set [2] (male, beagle, dog, plasma, po, 3 mg/kg, PO 3 mg/kg suspension, pentagastrin pretreated dogs, mean n = 3).
